# In PMC5632533, “Mechanisms of action and in vivo antibacterial efficacy assessment of five novel hybrid peptides derived from Indolicidin and Ranalexin against Streptococcus pneumoniae” (PeerJ, 2017):
# Key:
# [1] = system: S. pneumoniae; assay: ATP efflux assay; format: cell-based, Streptococcus pneumoniae; details: peptides 125 µg/ml (RN7-IN7 500 µg/ml); for ATP released, Average 1hr / ATP released, Average 2hr / ATP released, Average 3hr: raw data sheet, mean of 3
# Method: The amount of ATP released from pneumococcal cells incubated with hybrid peptides was measured as described previously, with a slight modification ([Tanida et al., 2006]). The ATP determination kit (Molecular Probes, Eugene, OR, USA) was used to measure the amount of ATP released based on the luciferin/luciferase method according to the manufacturer’s instructions. Briefly, S. pneumoniae were grown overnight on Columbia agar with 5% sheep blood. Bacterial suspensions were spectrophotometrically adjusted to (1 × 10^7 CFU/ml) and incubated with hybrid peptides RN7-IN10, RN7-IN9, RN7-IN8 and RN7-IN6 at 125 µg/ml and with RN7-IN7 at 500 µg/ml. The amount of ATP released form the pneumococcal cells were measured at three time points 1, 2 and 3 h. The samples were then centrifuged at 5,000 rpm for 5 min, and ATP efflux was subsequently estimated using an ATP standard curve. Values were obtained from three independent experiments. Ceftriaxone and erythromycin were used as positive controls.
# [2] = system: Streptococcus pneumoniae; details: 30 pneumococcal clinical isolates; earlier study; ref Jindal et al., 2015; cited from earlier work
# Text: Table 1 Sequences and physicochemical properties of the template and hybrid AMPs. | column: MIC^a || One of the advantageous alternatives to today’s antibiotics is antimicrobial peptides (AMPs) ([Deslouches et al., 2013]; [Sánchez-Vásquez et al., 2013]). AMPs are synthesized by almost all living beings as the first line of defense in their immune system against microbial infection. Many aspects favor AMPs over traditional antibiotics: a broad range of antimicrobial activity against pathogenic micro-organisms (including viruses, parasites, bacteria, and fungi), microbial pathogens are less efficient in developing resistance against AMPs, as killing take place in a short contact time and AMPs c ...
# [3] = system: S. pneumoniae; assay: Transmission electron microscopy (TEM) of treated cells; format: cell-based, Streptococcus pneumoniae; details: 10^8 CFU/ml in CAMHB; 8 × MIC (125 µg/ml; RN7-IN7 500 µg/ml); 1 h, 37 °C, 5% CO2
# Method: Bacteria were prepared for TEM according to the guidelines of the Electron Microscopy Unit at the Faculty of Medicine, University of Malaya. S. pneumoniae cultures were grown overnight on Columbia agar with 5% sheep blood and suspended in cationally adjusted Mueller-Hinton broth (CAMHB) at 10^8 CFU/ml. […] Cells in cationally adjusted Mueller-Hinton broth (CAMHB) were used as an untreated control. After an hour of incubation, the pneumococcal cells were centrifuged to discard the medium, washed thrice with 10 mM phosphate buffer saline at pH 7.3 and fixed overnight in 4% (v/v) glutaraldehyde. All samples were washed twice with cacodylate buffer, incubated for 2 h in osmium tetroxide buffer (OsO4 1: 1 cacodylate), washed twice with cacodylate buffer and then incubated overnight in cacodylate buffer. All the samples were washed with distilled water twice and incubated for 10 min with uranyl acetate. After this, all samples were then washed twice with distilled water and dehydrated in an ascending series of ethanol: 35% (10 min), 50% (10 min), 70% (10 min), 95% (15 min), and thrice in 100% ethanol (15 min). After dehydration, samples were incubated with propylene oxide (15 min), propylene oxide 1:1 Epon (1 h), propylene oxide 1:3 Epon (2 h) and finally incubated overnight with Epon. All the samples were embedded in agar 100 resin at 37 °C for 5 hr and maintained at 60 °C until viewing. Reichert Ultramicrotome copper grids 3.05 mm (300 square mesh) (Agar Scientific, Essex, United Kingdom) were used to prepare Ultrathin sections. Ethanol-based uranyl acetate and lead citrate were used to stain the samples for 5 min. Transmission electron microscope (Leo Libra 120) was used to capture the images.
# [4] = system: S. pneumoniae genomic DNA; assay: Gel retardation assay (DNA retardation); format: binding, Streptococcus pneumoniae; details: 250 ng genomic DNA; 0.24–500 µg/ml tested; 10 min, room temperature; 1% agarose gel
# Method: This assay was carried out as described previously, with minor modifications ([Li et al., 2013]). S. pneumoniae were grown overnight on Columbia agar with 5% sheep blood. A few bacterial colonies were transferred into a 1.5 ml eppendorf tube containing phosphate buffered saline (PBS). The bacterial cells were centrifuged, PBS was discarded and 50 µl of TE buffer containing 0.08 g/ml of lysozyme and 150 U/ml of mutanolysin was added to the cells. Genomic DNA was isolated from pneumococcal cells using DNeasy Blood & Tissue Kit (Qiagen, Hilden, Germany), following the manufacturer’s giudlines. The optical density ratio of 260 nm and 280 nm (OD260∕OD280 = 1.83) was used to measure the purity of the DNA. Genomic DNA (250 ng) was incubated with hybrid peptides at various concentrations (0.24–500 µg/ml) in 12 μl at room temperature for 10 min. 2 μl of loading buffer were added to the mixture and the migration of DNA through 1% agarose gel was evaluated by electrophoresis in 1 × Tris borate–EDTA buffer (45 mM Tris–borate and 1 mM EDTA at pH 8.0) and spotted by the fluorescence of gel stain (Gel Red, BIOTIUM, Fremont, CA, USA). The natural peptide indolicidin was used as positive controls, ceftriaxone and erythromycin were used as negative controls.
# [5] = system: S. pneumoniae (highly virulent strain); assay: In vivo antipneumococcal activity, pneumococcal bacteremia (lethal systemic infection) model; design: species or system mice
# Method: Two pneumococcal infection models developed previously in our lab ([Le et al., 2015]) were used to assess the therapeutic efficacy of peptides in vivo. The systemic infection model was used to mimic pneumococcal bacteremia in humans and the pneumococcal pneumonia model was used to mimic pneumococcal pneumonia in humans. A highly virulent strain was used in both the models. The bacterial isolate was grown overnight on Columbia agar with 5% sheep blood at 37 °C under 5% CO2. The bacterial suspension was adjusted to OD625 0.08-0.1 (1 ∼ 2 × 10^8 CFU/ml). Mice tested for lethal systemic infection were inoculated with 1.5 × 10^2 CFU/mouse (100 μl) via IP route. Mice used to assess the Pneumococcal pneumonia model were inoculated with pneumococcal cells of 5 × 10^3 CFU/mouse (50 μl) via the intrathoracic route.
# After 1 hr of inoculation, Mice receiving treatment were randomized and divided into six groups. RN7-IN10 and RN7-IN8 were tested at three different doses for each (5 mg/kg, 10 mg/kg and 20 mg/kg) using a group of 10 mice. Graded doses of ceftriaxone (5 mg/kg, 10 mg/kg, […], 40 mg/kg and 80 mg/kg) were also tested to assess the in vivo antibacterial activity of this antibiotic. Only mice injected with PBS were served as uninfected control. Mice injected with bacterial inoculum were used as untreated control group and given sterile distilled water only. Survival of mice was documented for seven days or until death. After seven days, the experiment was ended, the blood and homogenates of the five major organs (kidney, brain, spleen, liver and lung) of the surviving mice were plated on Columbia agar with 5% sheep blood, to detect the presence of pneumococcal cells. […]
# [6] = system: Resistant S. pneumoniae; details: incubation with resistant S. pneumoniae; ref Jindal et al., 2015; cited from earlier work
# [7] = 1 × 10^7 CFU/ml, luciferin/luciferase, ATP standard curve, mean ± SD, three independent experiments
Compound,"ATP released from pneumococcal cells after 1 h [1, 7] [pM]","MIC, minimum inhibitory concentration [2] [µg/mL]","ATP released, Average 1hr [1] [pM]","ATP released, Average 2hr [1] [pM]","ATP released, Average 3hr [1] [pM]",concentration inhibiting migration of genomic DNA through the agarose gel [4] [µg/mL],also measured
"FLGGLIKPWWPWRR-NH2 [RN7-IN7, hybrid peptide of ranalexin (residues 1-7) and indolicidin (residues 7-13)]",22.35 ± 0.9,62.5,–,–,–,–,"ATP released from pneumococcal cells after 3 h [1, 7]: 13.02 ± 2.26 pM; TEM: detachment of cell wall from cell membrane [3]: partial disconnection of the cell wall from the cell membrane"
"CO/N=C(\C(=O)N[C@@H]1C(=O)N2C(C(=O)O)=C(CSc3nc(=O)c(=O)[nH]n3C)CS[C@H]12)c1csc(N)n1 [ceftriaxone, reference compound]",5.24 ± 1.43,–,5.248,3.522,3.119,> 500,"survival of infected mice up to seven days post-infection ([5]; 1.5 × 10^2 CFU/mouse IP, treatment IP 5 mg/kg (peptides at 1 h, 12 h, 24 h post-infection), 10 mice): 10%; survival of infected mice up to seven days post-infection ([5]; 1.5 × 10^2 CFU/mouse IP, treatment IP 10 mg/kg (peptides at 1 h, 12 h, 24 h post-infection), 10 mice): 30%; survival of infected mice up to seven days post-infection ([5]; 1.5 × 10^2 CFU/mouse IP, treatment IP 20 mg/kg (peptides at 1 h, 12 h, 24 h post-infection), 10 mice): 40%; survival of infected mice up to seven days post-infection ([5]; treatment IP 40 mg/kg): 70%; survival of infected mice up to seven days post-infection ([5]; treatment IP 80 mg/kg): 90%; time to bactericidal activity / elimination of S. pneumoniae [6]: > 240 min"
"CC[C@H]1OC(=O)[C@H](C)[C@@H](O[C@H]2C[C@@](C)(OC)[C@@H](O)[C@H](C)O2)[C@H](C)[C@@H](O[C@@H]2O[C@H](C)C[C@H](N(C)C)[C@H]2O)[C@](C)(O)C[C@@H](C)C(=O)[C@H](C)[C@@H](O)[C@]1(C)O [erythromycin, reference compound]",0.49 ± 0.004,–,0.4933,0.4736,0.3124,> 500,–
"ILPWKWPWWPWRR-NH2 [Indolicidin, natural template (parent) antimicrobial peptide]",–,15.62 to 31.25,–,–,–,62.5,–
"FLGGLIKIVPAMICAVTKKC-OH [Ranalexin, natural template antimicrobial peptide]",–,62.5,–,–,–,–,–
